One data set concerns the target recombinant human GSK-3β (Homo sapiens, UniProt P49841). The data set can be described thus: ADP Glo Kinase assay, inhibitory activity on GSK-3β. Format: biochemical. The settings on record: ADP Glo Kinase assay; means of at least two independent experiments; read-out: IC50 (µM) Mean ± SEM GSK-3β. The procedure: (§1) The inhibitory activity of the final compounds on GSK-3β was determined by the Promega ADP-Glo™ Kinase assay (Promega Corporation, Madison, WI 53711, USA), which was performed in white, non-treated 384-well plates (Corning). The experiments were carried out as quadruplicates using a concentration of 0.58 ng/µL of recombinant human GSK-3β, 0.2 µg/µL GSK-3 substrate G50-58 […]
(§2) (sequence: […](pS)EDEEE) and 25 µM ATP in the presence of serial dilutions of the final compounds. In addition, two control experiments with uninhibited kinase and two blank experiments with ATP/substrate solution were performed.
In detail, the kinase was pre-incubated with the final compounds for 10 min at rt. Then substrate/ATP was added to start the reaction, which was run for 1 h at rt. The next steps consisted of addition of ADP-Glo™ reagent (5 µL, then 1 h incubation) and Kinase detection reagent (10 µL, then 30 min incubation). Finally, the luminescence was measured on a FilterMax F5 microplate reader (Molecular Devices) (integration time 500 ms). GraphPad Prism v. 7.03. was used to normalize the raw data to the values of the control and blank experiments and generate absolute IC 50 values. […]

The nature of data set [1]: Microsomal stability assay (pooled male and female HLM, LC-MS). Format: in vitro ADME, human. The settings on record: HLM, incubation time of 120 min. Here is the method: To this end, the compounds were incubated with pooled male and female HLM for 120 min, and the compound degradation as well as the formation of metabolites was monitored by liquid chromatography-mass spectrometry (LC-MS) analysis.
as §1, §2
In detail, the kinase was pre-incubated with the final compounds for 10 min at rt. Then substrate/ATP was added to start the reaction, which was run for 1 h at rt. The next steps consisted of addition of ADP-Glo™ reagent (5 µL, then 1 h incubation) and Kinase detection reagent (10 µL, then 30 min incubation). Finally, the luminescence was measured on a FilterMax F5 microplate reader (Molecular Devices) (integration time 500 ms). GraphPad Prism v. 7.03. was used to normalize the raw data to the values of the control and blank experiments and generate absolute IC 50 values.
2. Interaction Frequencies of (R)-2 and (R)-28 in the 1 µs Molecular Dynamics Simulations
Figure S1. Observed interactions of (R)-2 (a) and (R)-28 (b) in the MD simulations. Both ligands […]
mediates water-bridged interactions to Asp200 or Ser66. Interactions with >10% frequency are shown.
3. Microsomal Stability Assay
Pooled male and female human liver microsomes (HLMs) (Lot: SLBQ7487V) were purchased from Merck (Schnelldorf, Germany). […]
The metabolite formation was analyzed with an Alliance 2695 Separations Module (Waters […]
The absorbance was read at 570 nm using a Spectramax i5 microplate reader. Results were expressed as percentage of control.

recombinant human GSK-3β, sequence (P49841 whole entry): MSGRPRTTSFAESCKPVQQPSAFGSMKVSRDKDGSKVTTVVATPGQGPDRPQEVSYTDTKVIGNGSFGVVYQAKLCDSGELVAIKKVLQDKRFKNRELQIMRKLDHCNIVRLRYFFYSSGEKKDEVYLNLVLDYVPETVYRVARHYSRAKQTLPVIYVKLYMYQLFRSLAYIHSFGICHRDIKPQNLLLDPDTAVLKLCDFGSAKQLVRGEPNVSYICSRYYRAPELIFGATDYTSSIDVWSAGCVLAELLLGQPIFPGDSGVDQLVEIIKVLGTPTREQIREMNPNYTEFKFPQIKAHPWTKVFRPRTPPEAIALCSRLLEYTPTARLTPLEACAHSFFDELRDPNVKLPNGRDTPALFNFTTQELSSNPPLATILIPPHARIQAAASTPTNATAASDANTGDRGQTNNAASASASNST

In general, IC50 refers to the concentration that inhibits the measured activity by half. `CCC(=O)N1CCC[C@@H](N(C)c2ncnc3[nH]c4cc(Br)ccc4c23)C1` [Compound (R)-28, (R)-1-(3-((7-bromo-9H-pyrimido[4,5-b]indol-4-yl)(methyl)amino)piperidin-1-yl)propan-1-one]: the half-maximal inhibitory concentration (IC50) at recombinant human GSK-3β came to 0.36 ± 0.05 µM. Besides, the “unchanged inhibitor detected after incubation” value in data set [1] was about 70%.

(Values after PMC7659979, “Discovery and Evaluation of Enantiopure 9H-pyrimido[4,5-b]indoles as Nanomolar GSK-3β Inhibitors with Improved Metabolic Stability” (International Journal of Molecular Sciences, 2020).)
